Results from US20250311727A1, “SUBSTITUTED 2-AMINOAZINES AND SALTS THEREOF, AND USE THEREOF AS HERBICIDAL ACTIVE SUBSTANCES” (BAYER AKTIENGESELLSCHAFT, priority 2022, published 2025).

Legend:
Assay type in all cases: in vivo
Veronica persica [1] = assay: Pre-emergence herbicide efficacy at 320 g/ha, VERPE; conditions: scored visually after about 3 weeks vs untreated controls, 100% = plants have died
Description: (§1) Unwanted plants/weeds: • ABUTH: Abutilon theophrasti • ALOMY: Alopecurus myosuroides • AMARE: Amaranthus retroflexus • DIGSA: Digitaria sanguinalis • ECHCG: Echinochloa crus-galli • KCHSC: Kochia scoparia • LOLRI: Lolium rigidum • MATIN: Matricaria inodora • POAAN: Poa annua • POLCO: Polygonum convolvulus • SETVI: Setaria viridis • STEME: Stellaria media • VERPE: Veronica persica • VIOTR: Viola tricolor A. Post-Emergence Herbicidal Efficacy at 320 g/ha
(§2) Seeds of mono- and dicotyledonous weed plants were placed in plastic pots in sandy loam soil (doubly sown with one species each of mono- or dicotyledonous weed plants per pot) and covered with soil. The compounds of the invention, formulated in the form of wettable powders (WP) or as emulsion concentrates (EC), were then applied to the surface of the covering soil as aqueous suspension or emulsion with addition of 0.5% additive at a water application rate of 600 litres per hectare (converted). After the treatment, the pots were placed in a greenhouse and kept under good growth conditions for the test plants. After about 3 weeks, the efficacy of the preparations was scored visually in comparison with untreated controls as percentages.
(§3) For example, 100% activity=the plants have died, 0% activity=like control plants.
(§4) Tables C1 to C12 below show the effects of selected compounds of the general formula (I) according to Table 1 on various harmful plants and at an application rate corresponding to 320 g/ha, which were obtained by the trial procedure specified above.

Setaria viridis [2] = assay: Pre-emergence herbicide efficacy at 80 g/ha, SETVI
Description: as §1
(§5) Seeds of monocotyledonous and dicotyledonous weed plants and crop plants were placed in plastic or organic planting pots and covered with soil. The compounds of the invention, formulated in the form of wettable powders (WP) or as emulsion concentrates (EC), were then applied to the surface of the covering soil as aqueous suspension or emulsion with addition of 0.5% additive at a water application rate equivalent to 600 l/ha. After the treatment, the pots were placed in a greenhouse and kept under good growth conditions for the test plants. After about 3 weeks, the efficacy of the preparations was scored visually in comparison with untreated controls as percentages. For example, 100% activity=the plants have died, 0% activity=like control plants.
(§6) Tables D1 to D12 below show the effects of selected compounds of the general formula (I) according to Table 1 on various harmful plants and an application rate corresponding to 80 g/ha, which were obtained by the experimental procedure mentioned above.

Abutilon theophrasti [3] = assay: Post-emergence herbicidal efficacy at 320 g/ha, ABUTH; conditions: rated visually after about 3 weeks vs untreated controls, 100% = plants have died
Description: as §1
(§7) Seeds of mono- and dicotyledonous weed plants were placed in plastic pots in sandy loam soil (doubly sown with in each case one species of mono- or dicotyledonous weed plants per pot), covered with soil and cultivated in a greenhouse under controlled growth conditions. 2 to 3 weeks after sowing, the test plants were treated at the one-leaf stage. The compounds of the invention, formulated in the form of wettable powders (WP) or as emulsion concentrates (EC), were applied to the green parts of the plants as aqueous suspension or emulsion with addition of 0.5% additive at a water application rate equivalent to 600 litres per hectare. After the test plants had been kept in the greenhouse under optimum growth conditions for about 3 weeks, the activity of the preparations was rated visually in comparison to untreated controls.
as §3
(§8) Tables A1 to A10 below show the effects of selected compounds of the general formula (I) according to Table 1 on various harmful plants and at an application rate corresponding to 320 g/ha, which were obtained by the trial procedure specified above.

Amaranthus retroflexus [4] = assay: Pre-emergence herbicide efficacy at 320 g/ha, AMARE; conditions: scored visually after about 3 weeks vs untreated controls, 100% = plants have died
Description: as §1, §2, §3, §4

Echinochloa crus-galli [5] = assay: Pre-emergence herbicide efficacy at 320 g/ha, ECHCG; conditions: scored visually after about 3 weeks vs untreated controls, 100% = plants have died
Description: as §1, §2, §3, §4

Echinochloa crus-galli [6] = assay: Post-emergence herbicidal efficacy at 320 g/ha, ECHCG; conditions: rated visually after about 3 weeks vs untreated controls, 100% = plants have died
Description: as §1, §7, §3, §8

Kochia scoparia [7] = assay: Pre-emergence herbicide efficacy at 320 g/ha, KCHSC; conditions: scored visually after about 3 weeks vs untreated controls, 100% = plants have died
Description: as §1, §2, §3, §4

Setaria viridis [8] = assay: Post-emergence herbicidal efficacy at 320 g/ha, SETVI; conditions: rated visually after about 3 weeks vs untreated controls, 100% = plants have died
Description: as §1, §7, §3, §8

Poa annua [9] = assay: Post-emergence herbicidal efficacy at 320 g/ha, POAAN; conditions: rated visually after about 3 weeks vs untreated controls, 100% = plants have died
Description: as §1, §7, §3, §8

Kochia scoparia [10] = assay: Post-emergence herbicidal efficacy at 80 g/ha, KCHSC; conditions: rated visually after about 3 weeks vs untreated controls, 100% = plants have died
Description: as §1
(§9) Seeds of monocotyledonous and dicotyledonous weeds and crop plants were placed in sandy loam in plastic or organic planting pots, covered with soil and cultivated in a greenhouse under controlled growth conditions. 2 to 3 weeks after sowing, the test plants were treated at the one-leaf stage. The compounds of the invention, formulated in the form of wettable powders (WP) or as emulsion concentrates (EC), were then sprayed onto the green parts of the plants as aqueous suspension or emulsion with addition of 0.5% additive at a water application rate of 600 l/ha (converted). After the test plants had been kept in the greenhouse under optimum growth conditions for about 3 weeks, the activity of the preparations was rated visually in comparison to untreated controls. For example, 100% activity=the plants have died, 0% activity=like control plants.
(§10) Tables B1 to B11 below show the effects of selected compounds of the general formula (I) according to Table 1 on various harmful plants and an application rate corresponding to 80 g/ha, which were obtained by the experimental procedure mentioned above.

Digitaria sanguinalis [11] = assay: Pre-emergence herbicide efficacy at 320 g/ha, DIGSA; conditions: scored visually after about 3 weeks vs untreated controls, 100% = plants have died
Description: as §1, §2, §3, §4

Amaranthus retroflexus [12] = assay: Post-emergence herbicidal efficacy at 320 g/ha, AMARE; conditions: rated visually after about 3 weeks vs untreated controls, 100% = plants have died
Description: as §1, §7, §3, §8

Setaria viridis [13] = assay: Pre-emergence herbicide efficacy at 320 g/ha, SETVI; conditions: scored visually after about 3 weeks vs untreated controls, 100% = plants have died
Description: as §1, §2, §3, §4

Veronica persica [14] = assay: Post-emergence herbicidal efficacy at 80 g/ha, VERPE; conditions: rated visually after about 3 weeks vs untreated controls, 100% = plants have died
Description: as §1, §9, §10

Digitaria sanguinalis [15] = assay: Post-emergence herbicidal efficacy at 320 g/ha, DIGSA; conditions: rated visually after about 3 weeks vs untreated controls, 100% = plants have died
Description: as §1, §7, §3, §8

Abutilon theophrasti [16] = assay: Pre-emergence herbicide efficacy at 80 g/ha, ABUTH; conditions: scored visually after about 3 weeks vs untreated controls, 100% = plants have died
Description: as §1, §5, §6

Veronica persica [17] = assay: Pre-emergence herbicide efficacy at 80 g/ha, VERPE
Description: as §1, §5, §6

Polygonum convolvulus = assay: Pre-emergence herbicide efficacy at 80 g/ha, POLCO; conditions: scored visually after about 3 weeks vs untreated controls, 100% = plants have died
Description: as §1, §5, §6

Kochia scoparia [18] = assay: Post-emergence herbicidal efficacy at 320 g/ha, KCHSC; conditions: rated visually after about 3 weeks vs untreated controls, 100% = plants have died
Description: as §1, §7, §3, §8

Kochia scoparia [19] = assay: Pre-emergence herbicide efficacy at 80 g/ha, KCHSC; conditions: scored visually after about 3 weeks vs untreated controls, 100% = plants have died
Description: as §1, §5, §6

Echinochloa crus-galli [20] = assay: Pre-emergence herbicide efficacy at 80 g/ha, ECHCG; conditions: scored visually after about 3 weeks vs untreated controls, 100% = plants have died
Description: as §1, §5, §6

Amaranthus retroflexus [21] = assay: Pre-emergence herbicide efficacy at 80 g/ha, AMARE; conditions: scored visually after about 3 weeks vs untreated controls, 100% = plants have died
Description: as §1, §5, §6

Stellaria media [22] = assay: Pre-emergence herbicide efficacy at 320 g/ha, STEME; conditions: scored visually after about 3 weeks vs untreated controls, 100% = plants have died
Description: as §1, §2, §3, §4

Amaranthus retroflexus [23] = assay: Post-emergence herbicidal efficacy at 80 g/ha, AMARE; conditions: rated visually after about 3 weeks vs untreated controls, 100% = plants have died
Description: as §1, §9, §10

Viola tricolor [24] = assay: Post-emergence herbicidal efficacy at 80 g/ha, VIOTR; conditions: rated visually after about 3 weeks vs untreated controls, 100% = plants have died
Description: as §1, §9, §10

Matricaria inodora [25] = assay: Pre-emergence herbicide efficacy at 320 g/ha, MATIN; conditions: scored visually after about 3 weeks vs untreated controls, 100% = plants have died
Description: as §1, §2, §3, §4

Veronica persica [26] = assay: Post-emergence herbicidal efficacy at 320 g/ha, VERPE; conditions: rated visually after about 3 weeks vs untreated controls, 100% = plants have died
Description: as §1, §7, §3, §8

Stellaria media [27] = assay: Post-emergence herbicidal efficacy at 320 g/ha, STEME; conditions: rated visually after about 3 weeks vs untreated controls, 100% = plants have died
Description: as §1, §7, §3, §8

Digitaria sanguinalis [28] = assay: Pre-emergence herbicide efficacy at 80 g/ha, DIGSA; conditions: scored visually after about 3 weeks vs untreated controls, 100% = plants have died
Description: as §1, §5, §6

Matricaria inodora [29] = assay: Pre-emergence herbicide efficacy at 80 g/ha, MATIN; conditions: scored visually after about 3 weeks vs untreated controls, 100% = plants have died
Description: as §1, §5, §6

Viola tricolor [30] = assay: Pre-emergence herbicide efficacy at 80 g/ha, VIOTR
Description: as §1, §5, §6

Poa annua [31] = assay: Pre-emergence herbicide efficacy at 320 g/ha, POAAN; conditions: scored visually after about 3 weeks vs untreated controls, 100% = plants have died
Description: as §1, §2, §3, §4

Abutilon theophrasti [32] = assay: Pre-emergence herbicide efficacy at 320 g/ha, ABUTH; conditions: scored visually after about 3 weeks vs untreated controls, 100% = plants have died
Description: as §1, §2, §3, §4

SMILES | Pre-emergence efficacy at 320 g/ha against VERPE in % (Veronica persica [1]) | Post-emergence efficacy at 320 g/ha against ABUTH in % (Abutilon theophrasti [3]) | Pre-emergence efficacy at 320 g/ha against AMARE in % (Amaranthus retroflexus [4]) | Pre-emergence efficacy at 320 g/ha against ECHCG in % (Echinochloa crus-galli [5]) | Post-emergence efficacy at 320 g/ha against ECHCG in % (Echinochloa crus-galli [6]) | Post-emergence efficacy at 320 g/ha against SETVI in % (Setaria viridis [8]) | Post-emergence efficacy at 80 g/ha against KCHSC in % (Kochia scoparia [10]) | Pre-emergence efficacy at 320 g/ha against DIGSA in % (Digitaria sanguinalis [11]) | Post-emergence efficacy at 320 g/ha against AMARE in % (Amaranthus retroflexus [12]) | Pre-emergence efficacy at 320 g/ha against SETVI in % (Setaria viridis [13]) | Post-emergence efficacy at 80 g/ha against VERPE in % (Veronica persica [14]) | Post-emergence efficacy at 320 g/ha against DIGSA in % (Digitaria sanguinalis [15]) | Pre-emergence efficacy at 80 g/ha against KCHSC in % (Kochia scoparia [19]) | Pre-emergence efficacy at 80 g/ha against AMARE in % (Amaranthus retroflexus [21]) | Pre-emergence efficacy at 320 g/ha against STEME in % (Stellaria media [22]) | Post-emergence efficacy at 80 g/ha against AMARE in % (Amaranthus retroflexus [23]) | Post-emergence efficacy at 320 g/ha against VERPE in % (Veronica persica [26]) | Post-emergence efficacy at 320 g/ha against STEME in % (Stellaria media [27]) | Pre-emergence efficacy at 80 g/ha against DIGSA in % (Digitaria sanguinalis [28]) | Pre-emergence efficacy at 320 g/ha against POAAN in % (Poa annua [31]) | further results
Cc1cnn(-c2c(C#N)cccc2Nc2ncc(Cl)cn2)c1 [Example 1-66] | 100% | 100% | 100% | 100% | 100% | 90% | 80% | 100% | 100% | 100% | 90% | 90% | 100% | 100% | 100% | 100% | 100% | 100% | 100% | 100% | Pre-emergence efficacy against SETVI (Setaria viridis [2]): 90%; Pre-emergence efficacy at 320 g/ha against KCHSC in % (Kochia scoparia [7]): 100%; Post-emergence efficacy at 320 g/ha against POAAN in % (Poa annua [9]): 100%; Pre-emergence efficacy at 80 g/ha against ABUTH in % (Abutilon theophrasti [16]): 80%; Pre-emergence efficacy against VERPE (Veronica persica [17]): 100%; Pre-emergence efficacy at 80 g/ha against POLCO in % (Polygonum convolvulus): 80%; Post-emergence efficacy at 320 g/ha against KCHSC in % (Kochia scoparia [18]): 100%; Pre-emergence efficacy at 80 g/ha against ECHCG in % (Echinochloa crus-galli [20]): 90%; Post-emergence efficacy at 80 g/ha against VIOTR in % (Viola tricolor [24]): 90%; Pre-emergence efficacy at 320 g/ha against MATIN in % (Matricaria inodora [25]): 90%; Pre-emergence efficacy at 80 g/ha against MATIN in % (Matricaria inodora [29]): 100%; Pre-emergence efficacy against VIOTR (Viola tricolor [30]): 100%; Pre-emergence efficacy at 320 g/ha against ABUTH in % (Abutilon theophrasti [32]): 100%
Fc1cccc(Nc2ncc(Cl)cn2)c1-n1cc(C(F)(F)F)cn1 [Example 1-47] | 100% | 90% | 100% | 100% | 90% | 90% |  | 90% | 90% | 100% |  | 90% |  |  | 90% |  | 90% | 90% |  | 100% | 
Clc1cnc(Cc2ccccc2Nc2ncc(Cl)cn2)nc1 [Example 1-51] |  |  |  |  |  |  | 100% |  |  |  | 80% |  | 100% | 100% |  | 100% |  |  | 80% |  | 
